Reference: patent US10702568B2, “Compositions containing silymarin and sulfoalkyl ether cyclodextrin and methods of using the same” (UNIVERSITY OF KANSAS, priority 2015, dated 2020)

Tests used:
[1] = Permeation across the porcine intestine (Franz diffusion cell); type: in vitro ADME; details: 37° C., receiver PBS pH 7.4
Description: The Silymarin-CAPTISOL® complex was tested for its permeability in the GI tract using the porcine intestine and the silymarin solution without CAPTISOL® as a control sample. Freshly excised porcine intestine was cleaned and sandwiched between the two chambers of a Franz diffusion cell with an active diffusion area of 0.64 cm^2. The donor chamber was filled with 0.5 ml of CAPTISOL® enabled silymarin solution (prepared using ligand method) or pure silymarin in Phosphate buffered saline (PBS): Ethanol (80:20) used as a positive control. Receiver chamber was filled with 5 ml of PBS, pH 7.4, which is stirred at 600 rpm with a 3 mm magnetic stir bar at 37° C. temperature maintained with a circulating water bath. 200 μL of buffer from receiver side was withdrawn at different time intervals (0, 1, 2, 4, 6 and 8 h) and equal volume was replaced with fresh PBS buffer. Above samples were transferred into vials and subjected to HPLC analysis.
The control sample was prepared by adding excess of the silymarin extract to Phosphate buffered saline (PBS): Ethanol (80:20). These samples were shook at room temperature for 24 hr, and at equilibrium the samples were centrifuged at 10,000 RPM and filtered using Millipore (0.22 μm) syringe filter. The filtrates were analyzed using HPLC for Taxifolin, Silychristin, Silydianin, Silybin A, Silybin B, Isosilybin A and Isosilybin B after appropriate dilution. […]

[2] = Pharmacokinetic study in rat; type: in vivo; details: oral, FIG. 21A
Description: The Silymarin-CAPTISOL® complex was administered to rat to test its pharmacokinetic properties.
On arrival rats were housed individually in cages at animal care facility in a temperature and humidity controlled room with a 12 h:12 h (light:dark) cycles. The rats were provided with free access to food and water for one week before using for experimental purpose. The 12 rats were equally divided into three groups—Group I: silymarin-CAPTISOL® complex with a CAPTISOL® concentration of 100 mM for oral administration; Group II: silymarin suspension (Control); and Group III: silymarin complex with a CAPTISOL® concentration of 100 mM for intravenous administration. The animals were fasted overnight with free access to water. On the day of experiment, the rat was removed from animal care facility and brought to the procedure lab. The animal was weighed and appropriate dosing volume was determined. For oral administration, rat's head was held in place by gently extending the head back and supporting the lower body. The gavage tube was placed in the mouth and advanced along the lower palate till the esophagus, and the silymarin was administered through the tube. For intravenous administration, the silymarin-CAPTISOL® complex was administered by slow bolus intravenous injection into the tail vein. Approximately 200 μL blood was drawn into heparin coated tubes at pre dose, 0.15, 0.5, 1, 2, 4, 8, 10 and 24 h for oral group II and for intravenous group III. The sampling time points were predose, 0.12, 0.25, 0.5, 1, 2, 4, 8 and 24 h through the jugular vein catheter. Plasma was harvested by centrifuging the blood at 4000 RPM for 5 min and stored frozen at −80±10° C. until analysis.
Stored plasma was thawed just before performing the silymarin components analysis. 200 μL of acetonitrile containing 0.1% of ammonia was added to 50 μL of plasma, and this mixture was vortexed for 5 min and centrifuged at 4° C. for 5 min at 10,000 RPM. After centrifugation, the supernatant was separated and injected into HPLC for analysis of silymarin constituents taxifolin, silydianin, silychristin, silybin A, silybin B, isosilybin A and isosilybin B.
The plasma concentration-time curves of silybin A, silybin B, isosilybin A, and isosilybin B in the Silymarin-CAPTISOL® sample of Group I and the control sample (silymarin suspension) are respectively shown in FIGS. 20A to 20D.

For `O=C1c2c(O)cc(O)cc2O[C@H](c2ccc(O)c(O)c2)[C@H]1O` [Taxifolin], the “Apparent permeability coefficient Papp × 10^−3” value ([1]; Silymarin CAPTISOL® complex in donor chamber) was 9.46 × 10^−3, the “Apparent permeability coefficient Papp × 10^−3” value ([1]; Silymarin in Ethanol:PBS (20:80) (control)) was 1.12 × 10^−3 and the “AUC of Silymarin-CAPTISOL® complex compared with the control sample” value [2] was “higher AUC”.
